From US5329012A, “Bis(acyloxmethyl)imidazole compounds” (The Research Foundation of State University of New York, priority 1987, dated 1994)
“And” between values parts separate entries of the source, which are not always exact repeats. Equal values may be shown once. Blank lines part the entries; values can stand above or below the compound they belong to.

Experiments:
[1] = test system: lymphocytic leukemia P-388; test: P-388 lymphocytic leukemia test in mice (NCI Protocol 1.200); assay type: in vivo, CDF1 female mice; settings: for BWD (body weight difference vs control) / KE (log tumor cell population end vs before treatment) / Tox.Day Surv. (survivors/animals tested): daily for 5 days; for Tox.Day Surv. (survivors/animals tested): day 5
Method: Various bis(acyloxymethyl)imidazole derivatives prepared in accord with Examples I-XVIII and designated Samples A-J, were tested for anti-tumor activity in vivo using the lymphocytic leukemia P-388 test procedure in mice with Samples A and B representing controls. The test system was that employed by the National Cancer Institute (NCI) for the preliminary screening of anti-tumor agents, according to Protocol 1.200 (Cancer Chemo. Reports Part 3, Vol. 3, No. 2, page 9; 1972). In the study ascitic fluid containing 6×10^6 cells was implanted in the peritoneal cavity of CDF1 female mice. Each imidazole was given in a single injection, at four to six different dose levels (5-6 mice/dose level) daily for five (5) days beginning 24 hours after tumor innoculation. The control animals received saline. Test criteria was in accord with NCI protocol as follows: toxicity day evaluations were carried out on day 5 (number of survivors/number of animals tested); % T/C data was calculated through mean survival time [% T/C=(MST treated/MST control)x100, where MST=mean survival time]; BWD refers to the body weight difference (grams) of test animals compared to control animals; KE refers to the log of the tumor cell population at the end of treatment relative to tumor cell population before treatment.
Table I sets out the identification of the compounds corresponding to the samples used in this and further Examples. Table II sets out the results of the P-388 tests.

[2] = test system: MX-1 (mammary) human tumor xenograft; test: MX-1 human mammary tumor xenograft (subrenal capsule), tumor weight evaluation; assay type: in vivo, human tumor in female athymic (nude) mice; settings: single dose
Method: (§1) Tumor cells were inoculated ip(intraperitonal) into female, athymic, mice, being either MX-1 (mammary) or LOX (amelanotic melanoma) human tumor xenograph models. The human xenograft tumors were formed by heterotransplantation of surgically removed human tumors into the subrenal capsule of the nude mice. […] The hydrochloride salts of the compounds, designated H, K, and L, and the free base of H, as identified on Table I were administered to the viable human xenograft tumors by a single dose subcutaneous renal cavity (MX-1) injection or interperitonal (LOX) injection to the nude mice test animal in a suspension of 0.9% aqueous sodium chloride solution with "tween-80" and distilled water. The tested compounds were tested against a known cancer tumor inhibiting compound (control) 2,3-dihydro-5-(3'-4'-dichloropheny1)-6,7-bis(n-propylcarbanoxymethylcarbonate)-1H-pyrollizine.
(§2) In both the MX-1 and LOX model, results were expressed as a percentage of the test animal evaluation (T) compared to that for the control (C) and was reported as %T/C. These values are based on all mice in the test.
In the MX-1 model %T/C was evaluated from an estimate of tumor weight in untreated mice as compared to an estimate of tumor weight in treated mice. In such tumor weight evaluation, a low %T/C indicates effective treatment as the tumors of the treated mice are smaller than tumors of the untreated control mice.
(§3) The data presented comprises findings at optimal dosages of particularly effective compounds of the invention as compared to the control.

[3] = test system: LOX (amelanotic melanoma) human tumor xenograft; test: LOX human amelanotic melanoma xenograft, survival evaluation; assay type: in vivo, human tumor in female athymic (nude) mice; settings: single dose
Method: as §1, §2
In the LOX model %T/C was evaluated by survival, meaning that the mean survival time of mice of the control group surviving (C) is compared to the mean survival time of mice who survived the test with treatment (T).
as §3

[4] = hygroscopicity of the hydrochloride salt (observation); assay type: physicochemical; settings: crystalline hydrochloride salt
Method: A solution of the 1-n-propyl-2-methylthio-4,5-bis(N-methyl carbonyloxymethyl)imidazole prepared in Example XVI (1.72 g; 5.21 mmol) in anhydrous dichloromethane (50 mL) was stirred at 0°-5° C. while anhydrous hydrogen chloride gas was bubbled into the solution for 5 minutes through a gas dispersion tube. […] The residue was dried in vacuo for 10 minutes and dissolved in anhydrous dichloromethane (40 mL). The solution was reduced in volume to 10 mL to induce crystallization. Once crystallization had begun, methylene chloride (20 mL) was added and the cold (0° C.) solution was triturated for 10 minutes.

[5] = Mus musculus, P388, 120 h, read-out: % T/C (mean survival time)
[6] = optimal dosage 115 mg/kg, hydrochloride salt
[7] = optimal dosage 200 mg/kg, free base
[8] = optimal dosage 100 mg/kg, free base, listed as H (Free base)
[9] = optimal dosage 240 mg/kg, hydrochloride salt
[10] = optimal dosage 135 mg/kg, hydrochloride salt

SMILES: CNC(=O)OCc1nc(SC)n(C)c1COC(=O)NC [H, 1-methyl-2-methylthio-4,5-bis-(N-methylcarbonyloxymethyl)imidazole]
BWD (body weight difference vs control) ([1]; 6.25 mg/kg/inj): -0.7 g
KE (log tumor cell population end vs before treatment) ([1]; 6.25 mg/kg/inj): -0.83
Tox.Day Surv. (survivors/animals tested) ([1]; 6.25 mg/kg/inj): 5/6
BWD (body weight difference vs control) ([1]; 12.5 mg/kg/inj): -1.2 g
KE (log tumor cell population end vs before treatment) ([1]; 12.5 mg/kg/inj): 1.05
Tox.Day Surv. (survivors/animals tested) ([1]; 12.5 mg/kg/inj): 6/6
BWD (body weight difference vs control) ([1]; 25 mg/kg/inj): -1.4 g
KE (log tumor cell population end vs before treatment) ([1]; 25 mg/kg/inj): 1.05
Tox.Day Surv. (survivors/animals tested) ([1]; 25 mg/kg/inj): 6/6
BWD (body weight difference vs control) ([1]; 50 mg/kg/inj): -2.6 g
KE (log tumor cell population end vs before treatment) ([1]; 50 mg/kg/inj): 4.21
Tox.Day Surv. (survivors/animals tested) ([1]; 50 mg/kg/inj): 6/6
BWD (body weight difference vs control) ([1]; 100 mg/kg/inj): -4.1 g
KE (log tumor cell population end vs before treatment) ([1]; 100 mg/kg/inj): 6.75
Tox.Day Surv. (survivors/animals tested) ([1]; 100 mg/kg/inj): 6/6
response vs control in vivo at 6.25 mg/kg [1, 5]: 125%
response vs control in vivo at 12.5 mg/kg [1, 5]: 147%
response vs control in vivo at 25 mg/kg [1, 5]: 147%
response vs control in vivo at 50 mg/kg [1, 5]: 184%
response vs control in vivo at 100 mg/kg [1, 5]: 236%
MX-1 % T/C wt. ([2]; optimal dosage 100 mg/kg, free base): -73%
MX-1 % T/C wt. [2, 6]: -63%
MX-1 % T/C wt. [2, 7]: -56%
MX-1 Cures [2, 7]: 2/6
LOX % T/C Survl. [3, 8]: 365% and 233%
LOX Cures [3, 8]: 5/6 and 2/6
LOX % T/C Survl. [3, 6]: 234%
LOX Cures [3, 6]: 2/6

hygroscopicity [4]: slightly hygroscopic
SMILES: CCCn1c(SC)nc(COC(=O)NC)c1COC(=O)NC [K, 1-n-propyl-2-methylthio-4,5-bis-(N-methylcarbonyloxymethyl)imidazole]
MX-1 Cures [2, 9]: 6/6
LOX % T/C Survl. [3, 9]: 191%
LOX Cures [3, 9]: 1/6

SMILES: CCCCCCn1c(SC)nc(COC(=O)NC)c1COC(=O)NC [L, 1-n-hexyl-2-methylthio-4,5-bis-(N-methylcarbonyloxymethyl)imidazole]
MX-1 Cures ([2]; optimal dosage 270 mg/kg, hydrochloride salt): 6/6
LOX % T/C Survl. [3, 10]: 208%
LOX Cures [3, 10]: 1/6
